Calls of active or inactive are those of the source.
Key:
[1] = system: HepG2; experiment: Induction of intracellular NO release in human HepG2 cells at 1.5 to 6 uM after 24 hrs by Griess assay in presence of hemoglobin; assay type: functional, cell-based
[2] = system: HepG2; experiment: Cytotoxicity against human HepG2 cells after 24 hrs by MTT assay; assay type: functional, cell-based
[3] = system: HepG2; experiment: Induction of apoptosis in human HepG2 cells at 3 uM after 24 hrs by Western blotting analysis in presence of carboxy-PTIO; assay type: functional, cell-based
[4] = organism: Homo sapiens; experiment: Ratio of Kcat to Km for human GSTalpha
[5] = system: HepG2; experiment: Cytotoxicity against human HepG2 cells at 5 t0 35 uM by MTT assay; assay type: functional, cell-based; conditions: TDE = time-dependent effect
[6] = system: HepG2; experiment: Induction of apoptosis in human HepG2 cells assessed as increase in p38 phosphorylation at 3 uM by Western blotting analysis; assay type: functional, cell-based; conditions: TDE = time-dependent effect
[7] = system: HepG2; experiment: Induction of apoptosis in human HepG2 cells assessed as incerase in Caspase 3 expression at 6 uM by Western blotting analysis; assay type: functional, cell-based; conditions: TDE = time-dependent effect
[8] = system: HepG2; experiment: Induction of apoptosis in human HepG2 cells assessed as incerase in Cyt c expression at 6 uM by Western blotting analysis; assay type: functional, cell-based; conditions: TDE = time-dependent effect
[9] = system: HepG2; experiment: Induction of intracellular NO release in human HepG2 cells at 1.5 to 6 uM after 24 hrs by Griess assay in presence of carboxy-PTIO; assay type: functional, cell-based
[10] = system: HepG2; experiment: Induction of apoptosis in human HepG2 cells assessed as increase in JNK phosphorylation at 3 uM by Western blotting analysis; assay type: functional, cell-based; conditions: TDE = time-dependent effect
[11] = system: HepG2; experiment: Induction of apoptosis in human HepG2 cells assessed as incerase in Caspase 9 expression after 24 hrs by Western blotting analysis; assay type: functional, cell-based
[12] = system: HepG2; experiment: Induction of apoptosis in human HepG2 cells assessed as incerase in Caspase 9 expression at 6 uM by Western blotting analysis; assay type: functional, cell-based; conditions: TDE = time-dependent effect
[13] = system: HepG2; experiment: Induction of apoptosis in human HepG2 cells assessed as incerase in Caspase 3 expression after 24 hrs by Western blotting analysis; assay type: functional, cell-based
[14] = system: L02; experiment: Induction of intracellular NO release in human LO2 cells after 6 hrs by Griess assay; assay type: functional, cell-based
[15] = system: HepG2; experiment: Induction of apoptosis in human HepG2 cells at 3 uM after 24 hrs by Western blotting analysis in presence of Tiron; assay type: functional, cell-based
[16] = system: HepG2; experiment: Cell cycle arrest in human HepG2 cells assessed as decrease of cells at G0/G1 phase after 24 hrs by flow cytometry; assay type: functional, cell-based
[17] = system: HepG2; experiment: Induction of intracellular NO release in human HepG2 cells after 6 hrs by Griess assay; assay type: functional, cell-based
[18] = system: HepG2; experiment: Induction of apoptosis in human HepG2 cells assessed as loss of mitochondrial membrane potential at 1.5 to 6 uM after 24 hrs by JC-1 staining-based flow cytometry; assay type: functional, cell-based
[19] = system: HepG2; experiment: Induction of apoptosis in human HepG2 cells after 24 hrs by FITC-Annexin V/PI staining-based flow cytometry; assay type: functional, cell-based
[20] = system: HepG2; experiment: Cell cycle arrest in human HepG2 cells assessed as accumulation at G2/M phase after 24 hrs by flow cytometry; assay type: functional, cell-based
[21] = system: HepG2; experiment: Induction of intracellular NO release in human HepG2 cells after 24 hrs by DAF-FM DA staining-based flow cytometry; assay type: functional, cell-based
[22] = system: HepG2; experiment: Induction of apoptosis in human HepG2 cells assessed as incerase in Bax expression after 24 hrs by Western blotting analysis; assay type: functional, cell-based
[23] = system: L02; experiment: Induction of intracellular NO release in human LO2 cells at 6 uM by Griess assay; assay type: functional, cell-based; conditions: TDE = time-dependent effect
[24] = system: HepG2; experiment: Induction of apoptosis in human HepG2 cells assessed as increase in JNK phosphorylation after 24 hrs by Western blotting analysis; assay type: functional, cell-based
[25] = system: H22; experiment: Antitumor activity against mouse H22 cells […] in mouse assessed as reduction in tumor growth at 153.8 umol/kg, ip after 14 days; assay type: functional, organism-based
[26] = system: HepG2; experiment: Induction of apoptosis in human HepG2 cells assessed as reduction in Bcl2 expression after 24 hrs by Western blotting analysis; assay type: functional, cell-based
[27] = system: HepG2; experiment: Cytotoxicity against human HepG2 cells assessed as cell viability at 3 uM after 24 hrs by MTT assay in presence of hemoglobin; assay type: functional, cell-based
[28] = system: HepG2; experiment: Induction of intracellular NO release in human HepG2 cells at 1.5 to 6 uM after 24 hrs by DAF-FM DA staining-based flow cytometry; assay type: functional, cell-based
[29] = system: HepG2; experiment: Induction of apoptosis in human HepG2 cells assessed as reduction in Bcl2 expression at 6 uM by Western blotting analysis; assay type: functional, cell-based; conditions: TDE = time-dependent effect
[30] = system: HepG2; experiment: Induction of apoptosis in human HepG2 cells assessed as increase in ROS generation at 1.5 to 6 uM after 24 hrs by flow cytometry; assay type: functional, cell-based
[31] = system: H22; experiment: Antitumor activity against mouse H22 cells […] in ip dosed mouse assessed as reduction in tumor volume after 14 days relative to vehicle-treated control; assay type: functional, organism-based
[32] = system: HepG2; experiment: Induction of apoptosis in human HepG2 cells assessed as increase in p38 phosphorylation after 24 hrs by Western blotting analysis; assay type: functional, cell-based
[33] = system: HepG2; experiment: Induction of apoptosis in human HepG2 cells assessed as ROS generation at 1.5 to 6 uM after 24 hrs by flow cytometry in presence of Tiron; assay type: functional, cell-based
[34] = system: HepG2; experiment: Induction of apoptosis in human HepG2 cells assessed as loss of mitochondrial membrane potential after 24 hrs by JC-1 staining-based flow cytometry; assay type: functional, cell-based
[35] = system: HepG2; experiment: Induction of intracellular NO release in human HepG2 cells at 6 uM by Griess assay; assay type: functional, cell-based; conditions: TDE = time-dependent effect
[36] = system: HepG2; experiment: Induction of apoptosis in human HepG2 cells assessed as increase in ERK phosphorylation at 3 uM by Western blotting analysis; assay type: functional, cell-based; conditions: TDE = time-dependent effect
[37] = system: H22; experiment: Antitumor activity against mouse H22 cells […] in mouse assessed as reduction in tumor growth at 38.3 umol/kg, ip after 14 days; assay type: functional, organism-based
[38] = system: HepG2; experiment: Induction of apoptosis in human HepG2 cells assessed as incerase in Bax expression at 6 uM by Western blotting analysis; assay type: functional, cell-based; conditions: TDE = time-dependent effect
[39] = system: HepG2; experiment: Induction of intracellular NO release in human HepG2 cells at 30 uM after 6 hrs by Griess assay; assay type: functional, cell-based
[40] = system: HepG2; experiment: Induction of apoptosis in human HepG2 cells assessed as increase in ERK phosphorylation after 24 hrs by Western blotting analysis; assay type: functional, cell-based
[41] = system: HepG2; experiment: Cytotoxicity against human HepG2 cells at 10 to 100 uM after 24 hrs by MTT assay; assay type: functional, cell-based
[42] = system: HepG2; experiment: Induction of intracellular NO release in human HepG2 cells at 1.5 to 6 uM after 24 hrs by Griess assay in presence of etacrynic acid; assay type: functional, cell-based
[43] = system: H22; experiment: Antitumor activity against mouse H22 cells […] in ip dosed mouse assessed as reduction in tumor weight after 14 days relative to vehicle-treated control; assay type: functional, organism-based
[44] = system: HepG2; experiment: Induction of apoptosis in human HepG2 cells at 3 uM after 24 hrs by Western blotting analysis in presence of EA; assay type: functional, cell-based
[45] = system: HepG2; experiment: Induction of apoptosis in human HepG2 cells assessed as incerase in Cyt c expression after 24 hrs by Western blotting analysis; assay type: functional, cell-based

CN(CCO)/[N+]([O-])=N\Oc1cc(N2CCN(CC(=O)O[C@H]3CC[C@]4(C)[C@H]5CC=C6[C@@H]7CC(C)(C)CC[C@]7(C(=O)O[C@@H]7O[C@H](CO)[C@H](O)[C@H](O)[C@H]7O)CC[C@@]6(C)[C@]5(C)CC[C@H]4C3(C)C)CC2)c([N+](=O)[O-])cc1[N+](=O)[O-]
active: Activity [1] | Activity [2] Dose-dependent effect | Activity [3] | Activity [5] tde | Activity [6] tde | Activity [7] tde | Activity [8] tde | Activity [9] | Activity [10] tde | Activity [11] Dose-dependent effect | Activity [12] tde | Activity [13] Dose-dependent effect | Activity [14] Dose-dependent effect | Activity [15] | Activity [16] Dose-dependent effect | Activity [17] Dose-dependent effect | Activity [18] | Activity [19] Dose-dependent effect | Activity [20] Dose-dependent effect | Activity [21] Dose-dependent effect | Activity [22] Dose-dependent effect | Activity [23] tde | Activity [24] Dose-dependent effect | Activity [25] | Activity [26] Dose-dependent effect | Activity [27] | Activity [28] | Activity [29] tde | Activity [30] | Activity [31] Dose-dependent effect | Activity [32] Dose-dependent effect | Activity [33] | Activity [34] Dose-dependent effect | Activity [35] tde | Activity [36] tde | Activity [37] | Activity [38] tde | Activity [39] | Activity [40] Dose-dependent effect | Activity [41] | Activity [42] | Activity [43] Dose-dependent effect | Activity [44] | Activity [45] Dose-dependent effect
2730 M⁻¹ s⁻¹: kcat/Km [4]

From ChEMBL document CHEMBL2396531, “Hybrid molecule from O2-(2,4-dinitrophenyl)diazeniumdiolate and oleanolic acid: a glutathione S-transferase π-activated nitric oxide prodrug with selective anti-human hepatocellular carcinoma activity and improved stability” (J Med Chem, 2013)
